Earlier results on one molecule are cited in patent US7825159B2, “Mixtures of aromatic esters for marking or tagging organic products, marker compositions comprising the same and manufacturing methods thereof” (United Color Manufacturing, Inc., priority 2006, dated 2010).

The conditions of series [1]: with less than 28 wt. % n-octylpyrolidinone co-solvent.
For series [2] the following is noted: with less than 28 wt. % n-octylpyrolidinone co-solvent, even with vigorous stirring.

The structures appear in SMILES notation.

In the case of `CCCC(=O)Oc1ccc(C2(c3ccc(OC(=O)CCC)c(C)c3)OC(=O)c3ccccc32)cc1C` [Cresolphthalein dibutyrate], in series [1], the “Precipitation on standing overnight in the freezer” value is given as “precipitates”. Also, the “Dispersion into diesel fuel” value in series [2] is “will not disperse”.
